Values of other authors, collected in patent publication US10561630B2, “Hydroxycitric acid compounds and capsule liquid delivery” (GLYKON TECHNOLOGIES GROUP, LLC, priority 2016, dated 2020).

What was measured:
[1] = single large oral dose or two divided oral doses; min. 2.63 mmoles/kg once per day or 0.33 mmoles/kg twice per day; high-sugar diet
[2] = 2-week period

## O=C(O)CC(O)(C(=O)O)C(O)C(=O)O (single isomer, unassigned; (-)) [HCA, (−)-hydroxycitric acid]
[1]
  reduction in food consumption: ≥ 10%
[2]; 900 mg HCA, dissolved in 100 ml tomato juice
  food intake decreased: 15-30%
[2]
  weight loss: no significant weight loss
